Results: article PMC6295194 (Science translational medicine, 2018)
Structures can show the parent of a compound that is named as a salt.

Assays:
rhesus monkeys [1] = experiment: Tolerance to antinociceptive effects after 4 weeks repeated administration; settings: 2 injections daily for 4 weeks: morphine 1.8 mg/kg, AT-121 0.03 mg/kg
human NOP receptor = human NOP receptor (Homo sapiens, UniProt P41146); assay type: biochemical; settings: percentage of stimulation of standard full agonist N/OFQ (100%)
rhesus monkeys [2] = experiment: Warm water tail-withdrawal assay; assay type: in vivo, rhesus monkeys (Macaca mulatta); settings: Macaca mulatta, sc, read-out: antinociception ED50
rhesus monkeys [3] = experiment: Physiological responses by radio-telemetry; assay type: in vivo, rhesus monkeys (Macaca mulatta); settings: 1 mg/kg i.m., single monkey
rhesus monkeys [4] = tested on: rhesus monkeys; parameters: species or system rhesus monkeys (Macaca mulatta); settings: rhesus monkey, in vivo

Sequence of human NOP receptor (P41146 whole entry): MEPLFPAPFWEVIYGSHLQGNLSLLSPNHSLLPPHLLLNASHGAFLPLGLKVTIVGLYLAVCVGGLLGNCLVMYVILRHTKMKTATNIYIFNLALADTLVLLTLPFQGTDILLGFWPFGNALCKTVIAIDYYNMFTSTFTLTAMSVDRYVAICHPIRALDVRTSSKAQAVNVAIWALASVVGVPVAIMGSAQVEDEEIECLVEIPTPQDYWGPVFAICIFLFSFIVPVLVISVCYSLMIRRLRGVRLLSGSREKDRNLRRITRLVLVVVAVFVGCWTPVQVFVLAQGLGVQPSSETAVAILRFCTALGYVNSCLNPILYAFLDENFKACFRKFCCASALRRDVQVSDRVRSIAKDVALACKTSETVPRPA

CN1CC[C@]23c4c5ccc(O)c4O[C@H]2[C@@H](O)C=C[C@H]3[C@H]1C5 [Morphine, Morphine sulfate]
tolerance to antinociceptive effects (rhesus monkeys [1]): decrease in antinociceptive effects
[35S]GTPγS NOP % Stim (human NOP receptor): 5.4 ± 1%
ED50 (rhesus monkeys [2]): 1 mg/kg

CC(=O)Oc1ccc2c3c1O[C@H]1[C@@H](OC(C)=O)C=C[C@H]4[C@@H](C2)N(C)CC[C@@]341 [heroin, diamorphine HCl]
respiratory depression (rhesus monkeys [3]): caused respiratory depression
time to respiratory depression (rhesus monkeys [3]): < 20 min

O=C1CC[C@@]2(O)[C@H]3Cc4ccc(O)c5c4[C@@]2(CCN3CC2CC2)[C@H]1O5 [naltrexone, naltrexone HCl]
effect of pretreatment on reinforcing effects of oxycodone (rhesus monkeys [4]): effectively attenuated the reinforcing effects of oxycodone

buprenorphine HCl
effect of pretreatment on reinforcing effects of oxycodone (rhesus monkeys [4]): effectively attenuated the reinforcing effects of oxycodone
